Laboratory results taken from patent US11198673B2, “Therapeutic compounds and compositions” (eXIthera Pharmaceuticals, Inc., priority 2014, dated 2021).

Experiments:
human Factor XIa = target: T1, human Factor XIa (Homo sapiens, UniProt P03951); assay: Factor XIa enzyme inhibition assay (IC50, purified enzyme); type: biochemical; conditions: purified enzyme 0.25 nM, substrate 50 μM; read-out: Potency hFXIa IC50
T1 construct: Enzyme: Factor XIa; 0.25 μM in 50% glycerol (20 μg/mL)
Procedure, shortened: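 Fluorogenic Glp-Pro-Arg-AMC cleavage, 50 μM substrate, 0.25 nM enzyme, in 20 mM Hepes pH 7.4, 150 mM NaCl, 0.02% Tween 20. Serial two-fold compound dilutions from starting concentrations of 20, 2 and 0.2 μM. Read every minute for 30 min at 30° C; IC50 from a four-parameter fit of dose-response.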

Factor Xa = target: T2, Factor Xa (Homo sapiens, UniProt P00742); assay: Dose response assay for protease inhibitors: Factor Xa (FXIa fold selectivity); type: biochemical; conditions: fold selectivity for FXIa over Factor Xa
T2 construct: Factor Xa; 0.2 μM in 50% glycerol (9.2 μg/mL)

Thrombin = target: T3, Thrombin (Homo sapiens, UniProt P00734); assay: Dose response assay for protease inhibitors: thrombin (FXIa fold selectivity); type: biochemical; conditions: fold selectivity for FXIa over thrombin
T3 construct: Thrombin; 0.2 μM in 50% glycerol (7.34 μg/mL)

Trypsin = assay: Dose response assay for protease inhibitors: trypsin (FXIa fold selectivity); type: biochemical; conditions: fold selectivity for FXIa over trypsin
[1] = β-Lactam stability in rat plasma; type: in vitro ADME; conditions: normal rat plasma, room temperature; read-out: Rat Plasma Stability (T1/2; min)
Procedure, shortened: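 Compounds incubated in normal rat plasma at room temperature, sampled into acetonitrile from 2 to 480 min. Supernatants analysed by HPLC-MS on C18, extracted ion chromatograms of parent and parent+18 (H2O adduct) integrated; T½ = ln(2)/k from single-phase exponential decay fit.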

in vitro [2] = conditions: both, human, plasma, pH 7.4
Protocol: The following procedure was used to determine the plasma protein binding of a test compound in pooled plasma from human (mixed gender) via equilibrium dialysis in a 96-well plate format. The dialysate compartment is loaded with phosphate-buffered saline (pH 7.4) and the sample side is loaded with plasma spiked with the test compound at a concentration of 10 μM. After loading, samples are covered and incubated for 4 hours at 37° C. After incubation, each compartment is sampled, diluted with acetonitrile/buffer and centrifuged. The supernatants are analyzed by HPLC-MS/MS. The amount measured in the plasma compartment includes both free and bound drug, while that on the buffer side represents free drug only; the differences are used to calculate the percentage plasma protein bound.

physchem = type: physicochemical; conditions: pH 7.4, aqueous buffer, kinetic from dmso stock
Protocol: The test compound was prepared at 200 μM in PBS from a 10 mM DMSO stock solution. The final DMSO concentration was 2%. The PBS buffer samples were mixed thoroughly followed by incubation at room temperature for 24 h. At the end of the incubation, the PBS buffer samples were centrifuged and supernatants analyzed by HPLC.

in vitro [3] = conditions: both, human, microsomes, pH 7.4
Protocol: The following procedure was used to determine the stability of a test compound in pooled liver microsomes from human (mixed gender) in 96-well plate format. The test compound was quantified at five time points by HPLC-MS/MS analysis. The final microsomal protein concentration in the assay was 0.1 mg/mL. […] The test compound was pre-incubated with human liver microsomes in phosphate buffer (pH 7.4) for 5 min in a 37° C. shaking waterbath. The reaction was initiated by adding NADPH-generating system and incubated for 0, 15, 30, 45, and 60 minutes. The reaction was stopped by transferring the incubation mixture to acetonitrile/methanol. Samples were then mixed and centrifuged and the supernatants used for HPLC-MS/MS analysis. Peak areas corresponding to the test compound were recorded. The compound remaining was calculated by comparing the peak area at each time point to time zero.

T2 sequence (P00742 235-488 limits assumed): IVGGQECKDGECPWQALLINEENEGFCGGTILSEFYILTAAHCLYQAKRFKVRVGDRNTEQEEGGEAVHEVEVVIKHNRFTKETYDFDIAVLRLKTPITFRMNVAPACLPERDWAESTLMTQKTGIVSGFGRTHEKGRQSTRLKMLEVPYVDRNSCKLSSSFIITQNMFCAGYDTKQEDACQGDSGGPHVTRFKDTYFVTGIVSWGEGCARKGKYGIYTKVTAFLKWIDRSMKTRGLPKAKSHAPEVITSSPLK
T2 sequence (P00742 41-179 partner limits assumed): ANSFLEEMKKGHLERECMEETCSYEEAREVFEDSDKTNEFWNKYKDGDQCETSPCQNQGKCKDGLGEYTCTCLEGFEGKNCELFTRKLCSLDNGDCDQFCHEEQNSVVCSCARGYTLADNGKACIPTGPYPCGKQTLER
T1 sequence (P03951 388-625 limits assumed): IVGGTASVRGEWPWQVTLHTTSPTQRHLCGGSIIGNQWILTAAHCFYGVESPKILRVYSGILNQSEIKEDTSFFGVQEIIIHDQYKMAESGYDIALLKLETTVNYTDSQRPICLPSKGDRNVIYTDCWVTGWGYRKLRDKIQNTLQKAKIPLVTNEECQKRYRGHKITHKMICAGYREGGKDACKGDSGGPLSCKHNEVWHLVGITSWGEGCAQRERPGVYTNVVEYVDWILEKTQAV
T1 sequence (P03951 19-387 partner limits assumed): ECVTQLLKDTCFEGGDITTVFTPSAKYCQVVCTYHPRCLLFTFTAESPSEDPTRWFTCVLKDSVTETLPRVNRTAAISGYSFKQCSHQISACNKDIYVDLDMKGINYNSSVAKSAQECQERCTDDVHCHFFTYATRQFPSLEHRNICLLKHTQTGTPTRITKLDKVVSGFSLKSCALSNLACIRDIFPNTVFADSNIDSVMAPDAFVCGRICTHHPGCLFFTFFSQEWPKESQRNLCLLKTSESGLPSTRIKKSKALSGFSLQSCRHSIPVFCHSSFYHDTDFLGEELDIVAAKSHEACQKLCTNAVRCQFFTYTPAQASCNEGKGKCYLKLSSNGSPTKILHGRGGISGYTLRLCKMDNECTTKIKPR

IC50 (human Factor XIa) [nM]	FXIa Fold Selectivity FXa (Factor Xa)	FXIa Fold Selectivity Thrombin (Thrombin)	half-life [1] [h]	fraction unbound at 4 h, 10 µM (in vitro [2])	solubility at 4 h (physchem) [µM]	half-life at 0.1 µM (in vitro [3]) [h]	SMILES	FXIa Fold Selectivity Trypsin (Trypsin)
100 to 1000	G (“G” indicates 1-500)	G (“G” indicates 1-500)	> 1.67	< 0.02	> 100	0.5 to 1	O=C(O)[C@@H]1[C@@H](CCc2cccc(Cl)c2)C(=O)N1C(=O)N[C@@H](C1CCCCC1)C(F)(F)F [Example 134]	G (“G” indicates 1-500)
100 to 1000	G (“G” indicates 1-500)	H (“H” indicates 500-1000)	> 1.67	0.02 to 0.1	> 100	> 1	C[C@@H](NC(=O)N1C(=O)[C@H](Cc2ccncc2)[C@H]1C(=O)O)c1ccc2c(c1)OC(F)(F)O2 [Example 169]	G (“G” indicates 1-500)
